Literature values, collected in patent US10849951B2, “Use of PHY906 as treatment for inflammatory bowel disease and/or irritable bowel syndrome” (priority 2007, dated 2020).

Key:
[1] = biological target: bacterial 13-glucuronidase (Escherichia coli, UniProt P05804)
[2] = system: patients; conditions: NCI Common Toxicity criteria
[3] = system: perineal Crohn's; conditions: human, in vivo

bacterial 13-glucuronidase, sequence (P05804 whole entry): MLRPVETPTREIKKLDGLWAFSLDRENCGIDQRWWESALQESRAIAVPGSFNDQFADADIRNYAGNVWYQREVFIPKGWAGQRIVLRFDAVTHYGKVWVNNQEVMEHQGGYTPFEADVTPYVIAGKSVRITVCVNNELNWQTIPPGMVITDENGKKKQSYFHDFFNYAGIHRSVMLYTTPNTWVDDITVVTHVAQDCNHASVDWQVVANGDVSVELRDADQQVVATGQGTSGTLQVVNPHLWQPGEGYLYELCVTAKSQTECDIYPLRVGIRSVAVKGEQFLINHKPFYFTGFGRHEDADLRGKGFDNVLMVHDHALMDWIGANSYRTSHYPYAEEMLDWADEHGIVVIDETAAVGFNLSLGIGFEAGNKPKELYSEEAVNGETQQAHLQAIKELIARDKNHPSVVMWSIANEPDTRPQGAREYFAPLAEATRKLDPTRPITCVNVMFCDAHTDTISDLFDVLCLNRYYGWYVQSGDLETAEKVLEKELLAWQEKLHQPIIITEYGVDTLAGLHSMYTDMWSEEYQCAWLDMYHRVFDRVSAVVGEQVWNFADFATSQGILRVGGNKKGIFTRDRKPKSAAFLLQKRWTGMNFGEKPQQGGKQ

## O=c1cc(-c2ccccc2)oc2cc(O)c(O)c(O)c12 [Baicalein]
[1]
  inhibition of bacterial 13-glucuronidase: feedback inhibitor

## CCc1c2c(nc3ccc(OC(=O)N4CCC(N5CCCCC5)CC4)cc13)-c1cc3c(c(=O)n1C2)COC(=O)[C@]3(O)CC [CPT-11, irinotecan]
[2]
  patients with diarrhea classified grade 3 (serious) or grade 4 (life-threatening): about 40%

## Cc1ncc([N+](=O)[O-])n1CCO [Metronidazole, metronidazole]
[3]
  cases in which managing perineal Crohn's is effective: over 50%
